Converted amounts (≈) assume the structure as drawn.
How the values were obtained:
[1] = biological target: human Fibroblast activation protein alpha (hFAP) (Homo sapiens (Human), UniProt Q12884); experiment: hFAP inhibition assay (tight binders); type: biochemical; details: Ala-Pro-AMC 20 μM, n = 1 or geometric mean n = 2-6; also: hFAP 2.4 pM
Procedure: The plates were read on a PHERAstar® reader with excitation 340 nm and emission 460 nm. Data were analyzed in Genedata Screener®. IC50 values were determined by plotting % inhibition versus log compound concentration and using a one site dose response model.

hFAP (M39-A757) = hFAP (M39-A757) (Homo sapiens (Human), UniProt Q12884); experiment: hFAP binding assay (surface plasmon resonance); details: SPR, 20° C.; for hFAP Binding assay k(off) / hFAP Binding assay k(on): single cycle kinetics; for Kd: n = 1 or geometric mean n = 2-4
[2] = biological target: Prolyl endopeptidase, Prolyl Oligopeptidase (hPREP) (Homo sapiens (Human), UniProt P48147); experiment: hPrep inhibition assay; type: biochemical; details: hPREP 0.6 nM, Z-Gly-Pro-amino-methylcoumarin 50 μM; read-out: PREP IC50
Procedure: Compounds were tested in a biochemical inhibition assay using Prolyl endopeptidase, Prolyl Oligopeptidase (hPREP) enzyme at 0.6 nM FAC (R&D Systems, 4308-SE) and the substrate Z-Gly-Pro-amino-methylcoumarin (Bachem, I-1145) at 50 μM FAC. 384 Low volume black plates (Greiner #784076) were used. […] Plates were incubated for 15 min at rt in dark. 4 μL, 100 μM substrate solution (25 mM Tris HCl, 250 mM NaCl, 0.01% Triton X-100, 5 mM Glutathione, pH 7.5) was added to each well. Plates were centrifuged at 1000 rpm and incubated for 20 min at rt in dark. The plates were read on a PHERAstar® reader with excitation 340 nm and emission 460 nm. Data were analyzed in Genedata Screener®. IC50 values were determined by plotting % inhibition versus log compound concentration and using a one site dose response model.

Kinetic solubility = details: kinetic from dmso stock
Procedure: Kinetic solubility was measured as described in Comput Aided Mol Des 2015, 29, 795.

[3] = Metabolic stability in rat hepatocytes (rHep); details: n = 1 or geometric mean of n = 2-3
[4] = Metabolic stability in human liver microsomes (HLM); details: human
Procedure: Metabolic stability in HLM was measured as described in J Comput Aided Mol Des 2015, 29, 795.

[5] = Solubility, kinetic solubility, n = 1 or average of n = 2-3
[6] = HLM CLint, n = 1 or average of n = 2-3

Sequence of hFAP (M39-A757) (Q12884 39-757): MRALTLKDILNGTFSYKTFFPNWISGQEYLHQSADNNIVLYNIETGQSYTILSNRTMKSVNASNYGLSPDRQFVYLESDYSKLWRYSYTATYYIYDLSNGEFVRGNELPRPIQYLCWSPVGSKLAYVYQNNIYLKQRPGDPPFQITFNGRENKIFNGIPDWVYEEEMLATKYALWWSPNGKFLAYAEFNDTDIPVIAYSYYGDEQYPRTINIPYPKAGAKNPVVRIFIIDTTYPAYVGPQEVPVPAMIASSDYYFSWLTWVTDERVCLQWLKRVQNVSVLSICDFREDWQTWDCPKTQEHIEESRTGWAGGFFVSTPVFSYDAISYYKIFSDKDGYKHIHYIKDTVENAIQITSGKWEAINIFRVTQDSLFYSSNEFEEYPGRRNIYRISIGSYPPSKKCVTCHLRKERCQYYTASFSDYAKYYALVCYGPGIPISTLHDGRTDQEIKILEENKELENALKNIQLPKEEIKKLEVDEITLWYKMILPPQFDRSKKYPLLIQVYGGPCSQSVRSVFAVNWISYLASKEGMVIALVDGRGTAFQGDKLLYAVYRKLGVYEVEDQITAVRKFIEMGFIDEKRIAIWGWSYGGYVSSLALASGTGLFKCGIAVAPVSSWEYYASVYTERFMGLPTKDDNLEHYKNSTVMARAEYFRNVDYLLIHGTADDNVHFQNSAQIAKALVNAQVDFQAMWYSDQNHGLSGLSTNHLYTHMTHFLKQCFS
Sequence of Prolyl endopeptidase, Prolyl Oligopeptidase (hPREP) (P48147 whole entry): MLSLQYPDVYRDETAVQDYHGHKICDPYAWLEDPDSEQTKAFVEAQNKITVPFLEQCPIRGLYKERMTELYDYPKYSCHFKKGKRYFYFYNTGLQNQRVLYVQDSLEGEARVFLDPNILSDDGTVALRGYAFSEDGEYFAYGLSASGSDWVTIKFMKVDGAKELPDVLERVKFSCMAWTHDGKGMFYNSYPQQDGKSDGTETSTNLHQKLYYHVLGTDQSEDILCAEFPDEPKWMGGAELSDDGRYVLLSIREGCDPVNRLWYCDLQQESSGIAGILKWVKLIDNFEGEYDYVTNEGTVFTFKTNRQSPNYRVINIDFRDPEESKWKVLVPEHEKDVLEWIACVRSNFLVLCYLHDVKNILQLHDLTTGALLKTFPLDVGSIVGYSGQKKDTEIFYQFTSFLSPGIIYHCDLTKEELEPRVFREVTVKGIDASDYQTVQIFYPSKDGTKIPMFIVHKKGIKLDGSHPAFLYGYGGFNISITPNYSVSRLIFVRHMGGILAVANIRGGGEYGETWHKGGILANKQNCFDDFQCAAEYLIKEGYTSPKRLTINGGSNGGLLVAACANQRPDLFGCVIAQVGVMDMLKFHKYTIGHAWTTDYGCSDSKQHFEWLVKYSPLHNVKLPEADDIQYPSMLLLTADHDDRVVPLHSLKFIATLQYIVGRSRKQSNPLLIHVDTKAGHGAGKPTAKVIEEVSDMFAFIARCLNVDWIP
Sequence of human Fibroblast activation protein alpha (hFAP) (Q12884 38-760): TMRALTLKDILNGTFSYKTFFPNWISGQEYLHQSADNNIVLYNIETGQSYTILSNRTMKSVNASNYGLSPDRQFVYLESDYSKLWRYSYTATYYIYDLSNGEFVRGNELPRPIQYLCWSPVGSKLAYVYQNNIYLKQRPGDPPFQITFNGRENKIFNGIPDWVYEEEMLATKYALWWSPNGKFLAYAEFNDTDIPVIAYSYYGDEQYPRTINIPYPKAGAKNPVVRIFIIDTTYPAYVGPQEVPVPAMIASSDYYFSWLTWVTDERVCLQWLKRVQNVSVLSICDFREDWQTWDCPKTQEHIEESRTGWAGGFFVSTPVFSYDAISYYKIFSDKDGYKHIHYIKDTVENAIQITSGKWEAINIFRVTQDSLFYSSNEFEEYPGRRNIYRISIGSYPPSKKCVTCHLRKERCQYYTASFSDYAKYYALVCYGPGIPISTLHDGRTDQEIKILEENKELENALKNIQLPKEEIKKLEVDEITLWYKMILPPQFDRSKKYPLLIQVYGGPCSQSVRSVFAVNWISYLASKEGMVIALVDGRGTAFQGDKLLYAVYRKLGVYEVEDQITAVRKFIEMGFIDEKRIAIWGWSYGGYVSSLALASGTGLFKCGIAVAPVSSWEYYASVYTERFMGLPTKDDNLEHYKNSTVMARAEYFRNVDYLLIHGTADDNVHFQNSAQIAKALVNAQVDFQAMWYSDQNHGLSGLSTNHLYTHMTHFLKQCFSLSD

Row | SMILES | IC50 [1] | hFAP Binding assay k(off) (hFAP (M39-A757)) | hFAP Binding assay k(on) (hFAP (M39-A757)) | Kd (hFAP (M39-A757)) | IC50 [2] | solubility (Kinetic solubility; [5]) | rHep CLint [3] | microsomal CLint [4, 6] | microsomal CLint ([4]; liver microsomes, HLM CLint, n = 1 or average of n = 2-3) | solubility (Kinetic solubility) | microsomal CLint [4]
1 | COC[C@H]1[C@H](C)OCCN1c1ccc2nccc(C(=O)NCC(=O)N3CSC[C@H]3C#N)c2c1 [Example 96, N-(2-((R)-4-Cyanothiazolidin-3-yl)-2-oxoethyl)-6-((2S,3S)-3-(methoxymethyl)-2-methylmorpholino)quinoline-4-carboxamide] | 0.17 nM | 0.00022 s⁻¹ | 4000000 M⁻¹ s⁻¹ | 0.067 nM | 880 nM | > 1000 µM | 15 μL/min/1E6 | 71 µL/min/mg |  |  | 
2 | N#C[C@@H]1CSCN1C(=O)CNC(=O)c1ccnc2ccc(-n3ncc4c3CCCC4)cc12 [Example 114, (R)—N-(2-(4-Cyanothiazolidin-3-yl)-2-oxoethyl)-6-(4,5,6,7-tetrahydro-1H-indazol-1-yl)quinoline-4-carboxamide] | 0.072 nM |  |  | 0.062 nM | 230 nM | 4.5 µM (≈ 2.01 µg/mL) | 36 μL/min/1E6 | 170 µL/min/mg |  |  | 
3 | N#C[C@@H]1CSCN1C(=O)CNC(=O)c1ccnc2ccc(-n3cc4c(n3)CCCC4)cc12 [Example 115, (R)—N-(2-(4-Cyanothiazolidin-3-yl)-2-oxoethyl)-6-(4,5,6,7-tetrahydro-2H-indazol-2-yl)quinoline-4-carboxamide] | 0.04 nM |  |  | 0.11 nM | 130 nM | 0.59 µM (≈ 0.263 µg/mL) | 20 μL/min/1E6 | 120 µL/min/mg |  |  | 
4 | Cc1cc(C(F)(F)F)nn1-c1ccc2nccc(C(=O)NCC(=O)N3CSC[C@H]3C#N)c2c1 [Example 116, (R)—N-(2-(4-Cyanothiazolidin-3-yl)-2-oxoethyl)-6-(5-methyl-3-(trifluoromethyl)-1H-pyrazol-1-yl)quinoline-4-carboxamide] | 0.16 nM | 0.0012 s⁻¹ | 7900000 M⁻¹ s⁻¹ | 0.15 nM | 230 nM | 490 µM (≈ 232 µg/mL) | 15 μL/min/1E6 | 98 µL/min/mg |  |  | 
5 | CC1(C)CCc2cn(-c3ccc4nccc(C(=O)NCC(=O)N5CSC[C@H]5C#N)c4c3)nc21 [Example 117, (R)—N-(2-(4-Cyanothiazolidin-3-yl)-2-oxoethyl)-6-(6,6-dimethyl-5,6-dihydrocyclopenta[c]pyrazol-2(4H)-yl)quinoline-4-carboxamide] | 0.061 nM |  |  | 0.06 nM | 170 nM | 25 µM (≈ 11.5 µg/mL) | 29 μL/min/1E6 | 170 µL/min/mg |  |  | 
6 | N#C[C@@H]1CSCN1C(=O)CNC(=O)c1ccnc2ccc(-n3ccc(C(F)(F)F)n3)cc12 [Example 118, (R)—N-(2-(4-Cyanothiazolidin-3-yl)-2-oxoethyl)-6-(3-(trifluoromethyl)-1H-pyrazol-1-yl)quinoline-4-carboxamide] | 0.1 nM |  |  | 0.17 nM | 360 nM | 20 µM (≈ 9.21 µg/mL) | 21 μL/min/1E6 | 41 µL/min/mg |  |  | 
7 | N#C[C@@H]1CSCN1C(=O)CNC(=O)c1ccnc2ccc(-n3ccc4c(F)cc(F)cc43)cc12 [Example 119, (R)—N-(2-(4-Cyanothiazolidin-3-yl)-2-oxoethyl)-6-(4,6-difluoro-1H-indol-1-yl)quinoline-4-carboxamide] | 0.16 nM | 0.00031 s⁻¹ | 610000 M⁻¹ s⁻¹ | 0.39 nM | 76 nM | 1 µM (≈ 0.477 µg/mL) | 27 μL/min/1E6 | 68 µL/min/mg |  |  | 
8 | N#C[C@@H]1CSCN1C(=O)CNC(=O)c1ccnc2ccc(-n3ccc4cc(F)ccc43)cc12 [Example 120, (R)—N-(2-(4-Cyanothiazolidin-3-yl)-2-oxoethyl)-6-(5-fluoro-1H-indol-1-yl)quinoline-4-carboxamide] | 0.15 nM |  |  | 0.13 nM | 25 nM | 0.92 µM (≈ 0.423 µg/mL) | 27 μL/min/1E6 | 100 µL/min/mg |  |  | 
9 | Cc1ccn(-c2ccc3nccc(C(=O)NCC(=O)N4CSC[C@H]4C#N)c3c2)c1 [Example 121, (R)—N-(2-(4-Cyanothiazolidin-3-yl)-2-oxoethyl)-6-(3-methyl-1H-pyrrol-1-yl)quinoline-4-carboxamide] | 0.15 nM | 0.000016 s⁻¹ | 1100000 M⁻¹ s⁻¹ | 0.012 nM | 88 nM | 44 µM (≈ 17.8 µg/mL) | 13 μL/min/1E6 | 43 µL/min/mg |  |  | 
10 | N#C[C@@H]1CSCN1C(=O)CNC(=O)c1ccnc2ccc(N3CC(COC(F)(F)F)C3)cc12 [Example 130, (R)—N-(2-(4-Cyanothiazolidin-3-yl)-2-oxoethyl)-6-(3-((trifluoromethoxy)-methyl)azetidin-1-yl)quinoline-4-carboxamide] | 0.19 nM |  |  | 0.18 nM | 540 nM | 16 µM (≈ 7.67 µg/mL) | 11 μL/min/1E6 |  | 54 µL/min/mg |  | 
11 | N#C[C@@H]1CSCN1C(=O)CNC(=O)c1ccnc2ccc(N3CC4(CCCC4)C3)cc12 [Example 139, (R)—N-(2-(4-Cyanothiazolidin-3-yl)-2-oxoethyl)-6-(2-azaspiro[3.4]octan-2-yl)quinoline-4-carboxamide] | 0.32 nM |  |  | 0.015 nM | 1000 nM |  | 13 μL/min/1E6 |  |  | 50 µM (≈ 21.8 µg/mL) | 72 µL/min/mg

Further lines, with some results ahead:

Row | IC50 [1] | hFAP Binding assay k(off) (hFAP (M39-A757)) | hFAP Binding assay k(on) (hFAP (M39-A757)) | Kd (hFAP (M39-A757)) | IC50 [2] | solubility (Kinetic solubility; [5]) | rHep CLint [3] | microsomal CLint [4, 6] | microsomal CLint ([4]; liver microsomes, HLM CLint, n = 1 or average of n = 2-3) | SMILES | solubility (Kinetic solubility) | microsomal CLint [4]
12 | 0.12 nM | 0.00014 s⁻¹ | 1800000 M⁻¹ s⁻¹ | 0.033 nM | 360 nM | 140 µM (≈ 66.9 µg/mL) | 16 μL/min/1E6 | 97 µL/min/mg |  | CC1(CC(F)(F)F)CN(c2ccc3nccc(C(=O)NCC(=O)N4CSC[C@H]4C#N)c3c2)C1 [Example 131, (R)—N-(2-(4-Cyanothiazolidin-3-yl)-2-oxoethyl)-6-(3-methyl-3-(2,2,2-trifluoroethyl)azetidin-1-yl)quinoline-4-carboxamide] |  | 
13 | 0.41 nM | 0.00014 s⁻¹ | 270000 M⁻¹ s⁻¹ | 0.52 nM | 3700 nM | 13 µM (≈ 6.05 µg/mL) | 8.5 μL/min/1E6 | 38 µL/min/mg |  | N#C[C@@H]1CSCN1C(=O)CNC(=O)c1ccnc2ccc(N3CC(OC(F)(F)F)C3)cc12 [Example 132, (R)—N-(2-(4-Cyanothiazolidin-3-yl)-2-oxoethyl)-6-(3-(trifluoromethoxy)-azetidin-1-yl)quinoline-4-carboxamide] |  | 
14 | 0.1 nM | 0.000073 s⁻¹ | 1200000 M⁻¹ s⁻¹ | 0.066 nM | 370 nM | < 380 µM | 8.8 μL/min/1E6 | 40 µL/min/mg |  | CC1(CC(F)F)CN(c2ccc3nccc(C(=O)NCC(=O)N4CSC[C@H]4C#N)c3c2)C1 [Example 133, (R)—N-(2-(4-Cyanothiazolidin-3-yl)-2-oxoethyl)-6-(3-(2,2-difluoroethyl)-3-methylazetidin-1-yl)quinoline-4-carboxamide] |  | 
15 | 0.13 nM | 0.000080 s⁻¹ | 620000 M⁻¹ s⁻¹ | 0.13 nM | 620 nM | 71 µM (≈ 30.9 µg/mL) | 74 μL/min/1E6 | 210 µL/min/mg |  | CC1(C2CC2)CN(c2ccc3nccc(C(=O)NCC(=O)N4CSC[C@H]4C#N)c3c2)C1 [Example 134, (R)—N-(2-(4-Cyanothiazolidin-3-yl)-2-oxoethyl)-6-(3-cyclopropyl-3-methylazetidin-1-yl)quinoline-4-carboxamide] |  | 
16 | 0.061 nM | 0.000050 s⁻¹ | 2000000 M⁻¹ s⁻¹ | 0.036 nM | 300 nM | 21 µM (≈ 9.4 µg/mL) | 4.8 μL/min/1E6 | < 3 µL/min/mg |  | N#C[C@@H]1CSCN1C(=O)CNC(=O)c1ccnc2ccc(N3CC(OC(F)F)C3)cc12 [Example 136, (R)—N-(2-(4-Cyanothiazolidin-3-yl)-2-oxoethyl)-6-(3-(difluoromethoxy)-azetidin-1-yl)quinoline-4-carboxamide] |  | 
17 | 0.11 nM | 0.000098 s⁻¹ | 9500000 M⁻¹ s⁻¹ | 0.013 nM | 340 nM | 74 µM (≈ 31.3 µg/mL) | 17 μL/min/1E6 | 70 µL/min/mg |  | CCC1(C)CN(c2ccc3nccc(C(=O)NCC(=O)N4CSC[C@H]4C#N)c3c2)C1 [Example 137, (R)—N-(2-(4-Cyanothiazolidin-3-yl)-2-oxoethyl)-6-(3-ethyl-3-methyl-azetidin-1-yl)quinoline-4-carboxamide] |  | 
